Data on two compounds can be found in patent US7316816B2, “Temperature and pH sensitive copolymers” (Agency for Science Technology and Research, priority 2004, dated 2008).

Molecules are shown by their SMILES.

The nature of data set [1]: In vitro drug release by dialysis. In kind it is physicochemical. The note with it: pH 7.4 and 6.0. Here is the method:
DOX release from the nanoparticles was studied at pH 6.0, 6.6 and 7.4. A certain amount of DOX-loaded freeze-dried nanoparticles was dispersed in 200 μL of the respective buffer solution and allowed to stabilize for 30 minutes before being placed in a dialysis membrane with a molecular weight cut-off of 2000 (Spectra/Por). The dialysis bag was then immersed in 25 mL of PBS with pH 6.0, 6.6 or 7.4 at 37° C. The samples were drawn at specific time intervals and the drug concentration was analyzed using the UV-VIS spectrophotometer as stated in paragraph A(vi) of the present example.

For data set [2] the following is noted: cited from earlier work.

With `COc1cccc2c1C(=O)c1c(O)c3c(c(O)c1C2=O)C[C@@](O)(C(=O)CO)C[C@@H]3O[C@H]1C[C@H](N)[C@H](O)[C@H](C)O1` [DOX, doxorubicin], in data set [1], the “effect of pH on release of free DOX from the dialysis bag” value is recorded as “no significant effect of pH”. `Nc1nc2ncc(CNc3ccc(C(=O)N[C@@H](CCC(=O)O)C(=O)O)cc3)nc2c(=O)[nH]1` [Folic acid]: the pKa – broadly, the negative logarithm of the acid dissociation constant – in data set [2] is roughly 5.4.
